# Measured values as given in patent US11730734B2, “Use of ATR and Chk1 inhibitor compounds” (University of Florida Research Foundation, Incorporated, priority 2016, dated 2023).
# “Also recorded” adds a separate entry of the source.
# Tests used:
# [1] = tested on: ATR; assay: ATR activation (pATR S428 immunofluorescence) in HSV-1 infected U2OS cells; assay type: cell-based; conditions: for ATR activation (pATR labeling): 5 h
# Method: (§1) Cells were plated at 5×10^5 cells per well in 6-well plates and the following morning incubated with inhibitors. Following 1 h pre-incubation with inhibitors, cells were infected with HSV-1 at an MOI=0.1 in a volume of 200 uL for 1 h, viral inoculum removed, and cells overlaid with media containing fresh inhibitors, and cultured for 48 h. Following 48 h, cells and supernatant were harvested by scraping, separated into two Eppendorf tubes, and centrifuged at 10,000×g for 40 min. The cell pellet from one tube was used for extraction of DNA (DNazol according to manufacturer's recommendation, ThermoFisher Sci. catalog no. 10503027) and the second pellet was re-suspended in 200 uL serum-free MEM, freeze-thawed 3×, and virus titered on rabbit skin cells. For HSV-1 titering, rabbit skin cells were plated at 150,000 cells/well of 24-well plates and the following day infected with 10-fold serial dilutions of virus harvested from antiviral experiments. Cells were incubated for 48 h, stained with 1% crystal violet solution, and plaques counted from three separate wells for each experimental sample. Q-PCR was conducted using 20 ng input DNA, TaqMan® Fast Universal PCR 2× Master Mix (Applied Biosystems, catalog no. 4352041) along with TaqMan probes and target-specific primers (Applied Biosystems, Assays by Design part no. 4331348) against HSV-1 polymerase. Samples were run on a StepOnePlus Real-Time PCR System (Applied Biosystems) using fast cycling: denaturation at 95° C. for 20 sec followed by 40 cycles at 95° C. for 1 sec and 60° C. for 20 sec. Additional experimental compounds were also tested as follows: […] Cyclohexamide (Sigma, catalog no. C7698) or DMSO vehicle was added to the overlay media at 50 ug/mL and the infection allowed to proceed for 5 h. (2) For replication inhibition, phosphonoacetic acid (PAA) was added at time of virus adsorption and included in overlay media at 400 ug/mL for 5 h. (3) A final [3 mM] hydroxyurea was added at the time of cell plating and incubated for 18 h. […]
# [2] = tested on: viral replication centers; assay: Viral replication center formation / maturation (immunofluorescence); assay type: cell-based, HSV-1; conditions: for replication center formation: 5 h
# Method: as §1
# [3] = tested on: 17+HSV-1; assay: Antiviral assay, HSV-1 titering (viral titer / PFU on rabbit skin cells); assay type: cell-based; conditions: U2OS cells, 17+HSV-1 MOI=0.1, 48 h; ATR inhibitors 10 μM, Chk1 inhibitors 250 nM, aphidicolin 4 μM, KU55933 10 μM, Chk2 inhibitor II 5 μM, NU7441 1 μM
# [4] = tested on: ICP4; assay: ICP4 expression by immunofluorescence in HSV-1 infected cells; assay type: cell-based; conditions: VE-822 10 μM, 17+HSV-1 MOI=10, 5 h.p.i.
# Method: (§2) U2OS cells were plated onto coverslips at 75,000 cells per well of 24-well plates and the following day infected at an MOI=10 for the indicated times.
# (§3) Thereafter, cells were processed for immunofluorescence in one of two ways that incorporated an Fc receptor blocking step: (1) cells were fractionated in situ by pre-extraction following previously published procedures; briefly, cells were incubated in Cytoskeleton Buffer (CB; 100 mM PIPES, 300 mM sucrose, 100 mM NaCl, 3 mM MgCl2, 1 mM EGTA) for 5 min on ice followed by incubation in Cytoskeleton Stripping Buffer (CSK; 10 mM Tri-HCL pH 7.4, 10 mM NaCl, 3 mM MgCl2, 1% Tween-40, 1% Tween-20, 0.5% sodium deoxycholate) for 5 min on ice. Cells were then washed 3× with PBS and fixed with Streck fixative (150 mM 2-bromo-2-nitro-1,3-propanediol, 108 mM diazolidinyl urea, 10 mM sodium citrate, 50 mM EDTA) for 30 min at RT, washed with PBS, and permeabilized with 0.5% Triton X-100 in 100 mM Tris-HCL pH 7.4 plus 50 mM EDTA for 15 min at RT. Cells were then incubated sequentially with Fc Receptor Blocker (Innovex Biosciences, catalog no. NB309) for 30 min at RT followed by blocking buffer (5% goat serum, 0.1% NP-40, 20 mM Tris-HCL pH 7.4, 150 mM NaCl) for 30 min at RT. (2) In some cases cells were fixed in 3.7% paraformaldehyde in PBS for 5 min at RT followed by blocking with Fc Receptor Blocker and blocking buffer as above. […]
# [5] = tested on: ICP8; assay: ICP8 expression in HSV-1 infected cells (data not shown); assay type: cell-based; conditions: VE-822 10 μM
# Method: as §2, §3
# [6] = tested on: Chk1; assay: Chk1 activation (pChk1 S345 Western blot) in HSV-1 infected cells; assay type: cell-based
# Method: 5×10^5 cells were plated on 6-well plates and infected the following day with 17syn+(MOI=10). At the indicated times, cells were lysed in buffer containing 1% NP-40, 150 mM sodium chloride, 20 mM Tris-HCL pH 8.0, 2 mM EDTA, and 5% glycerol supplemented with phosphatase and protease inhibitor cocktails (Roche, PhosSTOP tablets; catalog no. 04906837001; ThermoFisherSci., Halt Protease Inhibitor Cocktail, catalog no. 1862209). For SDS-PAGE, 20 ug of protein was mixed with NuPAGE 4×LDS sample buffer (ThermoFisher Sci., catalog no. NP0007) along with NuPAGE Sample Reducing Agent (ThermoFisher Sci., catalog no. NP0004) and run on 4-12% Bis-Tris NuPAGE gels (ThermoFisher Sci.) with NuPAGE MOPS SDS running buffer (ThermoFisher Sci., catalog no. NP000102). Gels were transferred onto 0.22 μm PVDF in Towbin buffer (0.2 M Glycine, 25 mM Tris Base) containing 20% MeOH for 2 h under constant voltage (30V), the membrane blocked with 5% non-fat dry milk (NFDM)-TBST (20 mM Tris-HCL pH 7.4, 150 mM NaCl, 0.1% Tween-20) and probed with antibodies diluted in 1% NFDM-TBST overnight at 4° C. For ATR and ATM western blots, samples were processed as above except DTT (50 mM, Cell Signaling, catalog no. 7016) was used as the reducing agent and samples were run on NuPAGE Novex 3-8% Tris-acetate gels (ThermoFisher Sci.) with NuPAGE Tris-acetate SDS running buffer (ThermoFisher Sci., catalog no. LA0041). […]
# [7] = tested on: Chk1; assay: Chk1 activation following KD6 infection of permissive Vero cell line K5; assay type: cell-based; conditions: KD6 infection of Vero cell line K5, cycloheximide
smiles,measurement,setting,value
"O=C(O)CP(=O)(O)O [PAA, phosphonoacetic acid]",ATR activation (pATR labeling),[1]; PAA 400 ug/mL from virus adsorption,partially suppressed ATR activation; also recorded: partial suppression; also recorded: partially blocks pATR labeling
same,replication center formation,[2]; PAA 400 ug/mL,retards replication center formation
Cn1cc(-c2[nH]c3cc(NC(=O)[C@H](N)C4CCCCC4)cc4c3c2C=NNC4=O)cn1 [PF477736],"viral titers (HSV-1 PFU, virus production)",[3],significantly impact virus production
CNCc1ccc(-c2cc(-c3nc(-c4ccc(S(=O)(=O)C(C)C)cc4)cnc3N)on2)cc1 [VE-822],ATR activation (pATR),"[1]; VE-822 10 μM, 17+HSV-1 MOI=10, 5 h.p.i.",blocked ATR activation; also recorded: blocks activation of both ATR and Chk1
same,expression of ICP4,[4],blocked expression of ICP4; also recorded: blocking expression of both ICP4 and ICP8
same,maturation of replication centers,"[2]; VE-822, during HSV-1 infection",blocks maturation of replication centers
same,expression of ICP8,[5],blocked expression; also recorded: blocking expression of both ICP4 and ICP8
same,Chk1 activation / phosphorylation,"[6]; VE-822 10 μM, 17+HSV-1 MOI=10, Western blot",Chk1 activation was also blocked; also recorded: blocks activation of both ATR and Chk1; also recorded: blocks phosphorylation of Chk1
C[C@@]1(CO)[C@H](O)CC[C@@]2(C)[C@H]1CC[C@H]1C[C@@H]3C[C@@]12CC[C@]3(O)CO [aphidicolin],"viral titers (HSV-1 PFU, virus production)",[3],significantly inhibit viral titers; also recorded: significantly impact virus production
C[C@@H]1C[C@@H]([C@H](O)CC2CC(=O)NC(=O)C2)C(=O)[C@@H](C)C1 [cycloheximide],ATR activation (pATR labeling),[1]; cycloheximide 50 ug/mL in overlay media,completely blocked ATR activation; also recorded: complete suppression; also recorded: completely suppresses pATR labeling
same,Chk1 activation,[7],blocked
same,replication center formation,[2]; cycloheximide 50 ug/mL,retards replication center formation
same,Chk1 activation,[6]; cycloheximide,complete suppression
